Measured values: US20260072046A1 (priority 2015, published 2026)
Like-named read-outs stand apart in the source and are kept apart here.

How the values were obtained:
[1] = LC-MS/MS quantification of drugs in oral fluid of live and post-mortem dogs; conditions: for detected and quantified in the sublingual region (oral fluid): Example 4, post-mortem dog, sublingual area
[2] = LC-MS/MS quantification of drugs in muscle tissue fluid from remains of a post-mortem individual
[3] = LC/MS/MS of muscle tissue homogenate (conventional method); conditions: Example 5, remains of decedent; homogenate muscle tissue:plasma 1:4
[4] = human; for concentration detected in the sublingual region (oral fluid) / concentration detected in the submandibular gland (oral fluid): female
[5] = post-mortem dog SF10049, FIG. 28
[6] = PM50019 001a, liquid leaked from container
[7] = PM50019 001b, fluid expelled by pressing muscle tissue

With `CC(=O)Nc1ccc(O)cc1` [acetaminophen] the “detected and quantified in the sublingual region (oral fluid)” value (“detected and quantified” below) [1] was 12.20 ng/mL and the “concentration in oral fluid” value [1, 5] was 12.20 ng/mL.

With `CC(N)Cc1ccccc1` (stereo not shown) [amphetamine] the “concentration from the muscle tissue sample (muscle tissue fluid)” value (“concentration … (muscle tissue fluid)” below) [2, 6] was 10.4 ng/mL, the “concentration … (muscle tissue fluid)” value [2, 7] was 5.7 ng/mL and the “concentration from the muscle tissue homogenate” value [3] was less than 100 ng/g.

With `CCCC(C)(COC(N)=O)COC(=O)NC(C)C` (stereo not shown) [carisoprodol] the “concentration detected in the sublingual region (oral fluid)” value [4] was 49.20 ng/mL and the “concentration detected in the submandibular gland (oral fluid)” value [4] was 54.38 ng/mL.

For `O=C1CN=C(c2ccccc2Cl)c2cc([N+](=O)[O-])ccc2N1` [clonazepam], the “concentration in oral fluid” value [4] was 0.34 ng/mL.

For `COc1ccc2c3c1O[C@H]1[C@@H](O)C=C[C@H]4[C@@H](C2)N(C)CC[C@@]341` [codeine], the “concentration detected in the sublingual region (oral fluid)” value [4] was 5.64 ng/mL, the “concentration detected in the submandibular gland (oral fluid)” value [4] was 0.0 ng/mL and the “concentration in oral fluid” value [4] was 4.63 ng/mL.

With `CN(C)CCC=C1c2ccccc2C=Cc2ccccc21` [cyclobenzaprine] the “concentration in oral fluid” value [4] was 4.74 ng/mL.

For `NCC1(CC(=O)O)CCCCC1` [gabapentin], the “detected and quantified” value [1] was 205.00 ng/mL and the “concentration in oral fluid” value [1, 5] was 205.00 ng/mL.

With `CNC1(c2ccccc2Cl)CCCCC1=O` (stereo not shown) [ketamine] the “detected and quantified” value [1] was 408.30 ng/mL, the “concentration in oral fluid” value ([1]; live dog SF10085, FIG. 21) was 598.30 ng/mL and the “concentration in oral fluid” value ([1]; live dog SF10086, FIG. 22) was 592.10 ng/mL. The “concentration in oral fluid” value ([1]; live dog SF10087, FIG. 23) was 1914.90 ng/mL, the “concentration in oral fluid” value ([1]; live dog SF10088, FIG. 24) was 426.20 ng/mL and the “concentration in oral fluid” value ([1]; live dog SF10092, FIG. 25) was 844.20 ng/mL. The “concentration in oral fluid” value [1, 5] was 408.30 ng/mL and the “concentration in oral fluid” value ([1]; post-mortem dog SF10093, FIG. 26) was 229.50 ng/mL.

In the case of `CN[C@@H](C)Cc1ccccc1` [methamphetamine], the “concentration in oral fluid” value ([1]; live dog SF10048, FIG. 27) is reported as 16.20 ng/mL, the “concentration … (muscle tissue fluid)” value [2, 6] is reported as 113.1 ng/mL and the “concentration … (muscle tissue fluid)” value [2, 7] is reported as 46.1 ng/mL. For the same molecule, the “concentration from the muscle tissue homogenate” value [3] was 448+63 ng/g.

With `CN1CC[C@]23c4c5ccc(O)c4O[C@H]2[C@@H](O)C=C[C@H]3[C@H]1C5` [morphine] the “concentration detected in the sublingual region (oral fluid)” value [4] was 197.42 ng/mL and the “concentration detected in the submandibular gland (oral fluid)” value [4] was 12.34 ng/mL.

With `COc1ccc2c3c1O[C@H]1C(=O)CC[C@@]4(O)[C@@H](C2)N(C)CC[C@]314` [oxycodone] the “concentration in oral fluid” value [4] was 5.53 ng/mL.

With `COc1cccc(C2(O)CCCCC2CN(C)C)c1` (stereo not shown) [tramadol] the “detected and quantified” value [1] was 49.70 ng/mL and the “concentration in oral fluid” value [1, 5] was 49.70 ng/mL.
